ChEMBL document CHEMBL3407338, “Synthesis and structure-activity relationship of novel 1,4-diazabicyclo[2.2.2]octane derivatives as potent antimicrobial agents” (Eur J Med Chem, 2015)

Columns and labels:
[1] = test system: Salmonella enterica; experiment: Antimicrobial activity against Salmonella enterica ATCC 14028 at 0.1 ug/ml after 24 hrs by agar diffusion method; format: functional; settings: ATCC 14028, 24 h, read-out: DIZ
[2] = test system: Bacillus subtilis; experiment: Antimicrobial activity against Bacillus subtilis ATCC 6633 at 0.1 ug/ml after 24 hrs by agar diffusion method; format: functional; settings: ATCC 6633, 24 h, read-out: DIZ
[3] = test system: Staphylococcus aureus; experiment: Antimicrobial activity against Staphylococcus aureus ATCC 25923 at 0.1 ug/ml after 24 hrs by agar diffusion method; format: functional; settings: ATCC 25923, 24 h, read-out: DIZ
[4] = test system: Escherichia coli; experiment: Antimicrobial activity against Escherichia coli ATCC 25922 at 0.1 ug/ml after 24 hrs by agar diffusion method; format: functional; settings: ATCC 25922, 24 h, read-out: DIZ
[5] = test system: Pseudomonas aeruginosa; experiment: Antimicrobial activity against Pseudomonas aeruginosa ATCC 9027 at 0.1 ug/ml after 24 hrs by agar diffusion method; format: functional; settings: ATCC 9027, 24 h, read-out: DIZ
[6] = test system: Candida albicans; experiment: Antimicrobial activity against Candida albicans ATCC 32354 at 0.1 ug/ml after 24 hrs by agar diffusion method; format: functional; settings: ATCC 32354, 24 h, read-out: DIZ
[7] = test system: Staphylococcus aureus; experiment: Antimicrobial activity against Staphylococcus aureus ATCC 25923 at 1 ug/ml after 24 hrs by agar diffusion method; format: functional; settings: ATCC 25923, 24 h, read-out: DIZ
[8] = test system: Salmonella enterica; experiment: Antimicrobial activity against Salmonella enterica ATCC 14028 at 1 ug/ml after 24 hrs by agar diffusion method; format: functional; settings: ATCC 14028, 24 h, read-out: DIZ
[9] = test system: Pseudomonas aeruginosa; experiment: Antimicrobial activity against Pseudomonas aeruginosa ATCC 9027 at 1 ug/ml after 24 hrs by agar diffusion method; format: functional; settings: ATCC 9027, 24 h, read-out: DIZ
[10] = test system: Bacillus subtilis; experiment: Antimicrobial activity against Bacillus subtilis ATCC 6633 at 1 ug/ml after 24 hrs by agar diffusion method; format: functional; settings: ATCC 6633, 24 h, read-out: DIZ
[11] = test system: Escherichia coli; experiment: Antimicrobial activity against Escherichia coli ATCC 25922 at 1 ug/ml after 24 hrs by agar diffusion method; format: functional; settings: ATCC 25922, 24 h, read-out: DIZ
[12] = test system: Candida albicans; experiment: Antimicrobial activity against Candida albicans ATCC 32354 at 1 ug/ml after 24 hrs by agar diffusion method; format: functional; settings: ATCC 32354, 24 h, read-out: DIZ
[13] = test system: MEF; experiment: Cytotoxicity against mouse MEF cells after 72 hrs by MTT assay; format: cell-based
[14] = test system: Candida albicans; experiment: Antimicrobial activity against 10^4 CFU/ml Candida albicans ATCC 32354 after 22 hrs by serial microdilution method; format: functional; settings: ATCC 32354, 22 h
[15] = test system: Bacillus subtilis; experiment: Antimicrobial activity against 10^4 CFU/ml Bacillus subtilis ATCC 6633 after 22 hrs by serial microdilution method; format: functional; settings: ATCC 6633, 22 h
[16] = test system: Pseudomonas aeruginosa; experiment: Antimicrobial activity against 10^4 CFU/ml Pseudomonas aeruginosa ATCC 9027 after 22 hrs by serial microdilution method; format: functional; settings: ATCC 9027, 22 h
[17] = Cytotoxicity against mouse LMTK cells after 72 hrs by MTT assay; format: cell-based; settings: L-M(TK-)
[18] = test system: Escherichia coli; experiment: Antimicrobial activity against 10^7 CFU/ml Escherichia coli ATCC 25922 after 22 hrs by serial microdilution method; format: functional; settings: ATCC 25922, 22 h
[19] = test system: Salmonella enterica; experiment: Antimicrobial activity against 10^4 CFU/ml Salmonella enterica ATCC 14028 after 22 hrs by serial microdilution method; format: functional; settings: ATCC 14028, 22 h
[20] = test system: Candida albicans; experiment: Antimicrobial activity against 10^7 CFU/ml Candida albicans ATCC 32354 after 22 hrs by serial microdilution method; format: functional; settings: ATCC 32354, 22 h
[21] = test system: Escherichia coli; experiment: Antimicrobial activity against 10^4 CFU/ml Escherichia coli ATCC 25922 after 22 hrs by serial microdilution method; format: functional; settings: ATCC 25922, 22 h
[22] = test system: RPMI-8226; experiment: Cytotoxicity against human RPMI8226 cells after 72 hrs by MTT assay; format: cell-based; settings: RPMI-8226, 72 h
[23] = test system: Salmonella enterica; experiment: Antimicrobial activity against 10^7 CFU/ml Salmonella enterica ATCC 14028 after 22 hrs by serial microdilution method; format: functional; settings: ATCC 14028, 22 h
[24] = test system: Staphylococcus aureus; experiment: Antimicrobial activity against 10^4 CFU/ml Staphylococcus aureus ATCC 25923 after 22 hrs by serial microdilution method; format: functional; settings: ATCC 25923, 22 h
[25] = test system: Pseudomonas aeruginosa; experiment: Antimicrobial activity against 10^7 CFU/ml Pseudomonas aeruginosa ATCC 9027 after 22 hrs by serial microdilution method; format: functional; settings: ATCC 9027, 22 h
[26] = test system: Bacillus subtilis; experiment: Antimicrobial activity against 10^7 CFU/ml Bacillus subtilis ATCC 6633 after 22 hrs by serial microdilution method; format: functional; settings: ATCC 6633, 22 h
[27] = test system: HEK-293T; experiment: Cytotoxicity against human HEK293T cells after 72 hrs by MTT assay; format: cell-based
[28] = test system: Staphylococcus aureus; experiment: Antimicrobial activity against 10^7 CFU/ml Staphylococcus aureus ATCC 25923 after 22 hrs by serial microdilution method; format: functional; settings: ATCC 25923, 22 h

| Structure (SMILES) | zone of inhibition at 1 µg/mL [7] [mm] | zone of inhibition at 1 µg/mL [8] [mm] | zone of inhibition at 1 µg/mL [9] [mm] | zone of inhibition at 1 µg/mL [10] [mm] | zone of inhibition at 1 µg/mL [11] [mm] | zone of inhibition at 1 µg/mL [12] [mm] | MBC [14] [mg/L] | MIC [14] [mg/L] | MBC [15] [mg/L] | MIC [15] [mg/L] | MBC [16] [mg/L] | MIC [16] [mg/L] | MBC [18] [mg/L] | MIC [18] [mg/L] | MBC [19] [mg/L] | MIC [19] [mg/L] | MBC [20] [mg/L] | MIC [20] [mg/L] | MBC [21] [mg/L] | MIC [21] [mg/L] | also measured |
| --- | --- | --- | --- | --- | --- | --- | --- | --- | --- | --- | --- | --- | --- | --- | --- | --- | --- | --- | --- | --- | --- |
| CCCCCCCCCCCCCCCCCC[N+]12CC[N+](CCCCC[N+]34CC[N+](CCCCCCCCCCCCCCCCCC)(CC3)CC4)(CC1)CC2 | – | – | – | – | – | – | – | – | – | – | – | – | – | – | – | – | – | – | – | – | zone of inhibition at 0.1 µg/mL [1]: 0 mm; zone of inhibition at 0.1 µg/mL [2]: 0 mm; zone of inhibition at 0.1 µg/mL [3]: 0 mm; zone of inhibition at 0.1 µg/mL [4]: 0 mm; zone of inhibition at 0.1 µg/mL [5]: 0 mm; zone of inhibition at 0.1 µg/mL [6]: 0 mm |
| CC[N+]12CC[N+](CCCCC[N+]34CC[N+](CC)(CC3)CC4)(CC1)CC2 | 0 | 0 | 0 | 0 | 0 | 0 | – | – | – | – | – | – | – | – | – | – | – | – | – | – | – |
| CCC[N+]12CC[N+](CCCCC[N+]34CC[N+](CCC)(CC3)CC4)(CC1)CC2 | 0 | 0 | 0 | 0 | 0 | 0 | – | – | – | – | – | – | – | – | – | – | – | – | – | – | – |
| CCCCCCCCCCCCCC[N+]12CC[N+](CCCCC[N+]34CC[N+](CCCCCCCCCCCCCC)(CC3)CC4)(CC1)CC2.[Br-].[Br-].[Br-].[Br-] | 8 | 7 | 6 | 7 | 7 | 0 | 25 | 25 | 12.5 | 12.5 | 50 | 50 | > 100 | 50 | > 100 | 100 | 25 | 25 | 50 | 25 | IC50 [13]: 127 mg/L; IC50 [17]: 219 mg/L; IC50 [22]: 252 mg/L; MBC [23]: > 100 mg/L; MIC [23]: 100 mg/L; MBC [24]: 100 mg/L; MIC [24]: 6.3 mg/L; MBC [25]: > 100 mg/L; MIC [25]: > 100 mg/L; MBC [26]: 50 mg/L; MIC [26]: 12.5 mg/L; IC50 [27]: 400 mg/L; MBC [28]: > 100 mg/L; MIC [28]: 50 mg/L |
| CCCCCCCCC[N+]12CC[N+](CCCCC[N+]34CC[N+](CCCCCCCCC)(CC3)CC4)(CC1)CC2.[Br-].[Br-].[Br-].[Br-] | 10 | 9 | 0 | 12 | 10 | 10 | < 1.6 | < 1.6 | 6.3 | 6.3 | 12.5 | 12.5 | 25 | 6.3 | 50 | 12.5 | < 1.6 | < 1.6 | 12.5 | 6.3 | MBC [23]: 50 mg/L; MIC [23]: 25 mg/L; MBC [24]: 25 mg/L; MIC [24]: 12.5 mg/L; MBC [25]: 100 mg/L; MIC [25]: 50 mg/L; MBC [26]: 25 mg/L; MIC [26]: 25 mg/L; MBC [28]: 50 mg/L; MIC [28]: 12.5 mg/L |
